Measured values: PubChem BioAssay AID256 (DTP/NCI, 2004)
Toxic doses and inconclusive results are not listed. The calls were made as follows: active = survival T/C of 150% or more; inactive = T/C below 125% in these data.

System: CD2F1 mice, L1210 leukemia ip, survival T/C
Experiment: NCI In Vivo Anticancer Drug Screen. Data for tumor model L1210 Leukemia (intraperitoneal) in CD2F1 (CDF1) mice
Details: higher = longer survival
Procedure, shortened: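 In this screen, transplantable tumors were grown in mice given either the compound or its vehicle. Results were expressed as the treated measurement relative to the control measurement.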

[1] = endpoint: mean survival time, dose: 100.0 mg/kg/injection, schedule: Q01DX001 (ip), vehicle: saline with Tween-80
[2] = endpoint: mean survival time, dose: 200.0 mg/kg/injection, schedule: Q01DX001 (ip), vehicle: saline with Tween-80
[3] = endpoint: mean survival time, dose: 400.0 mg/kg/injection, schedule: Q01DX001 (ip), vehicle: saline with Tween-80
[4] = endpoint: mean survival time, dose: 100.0 mg/kg/injection, schedule: Q04DX003 (ip), vehicle: saline with Tween-80
[5] = endpoint: mean survival time, dose: 200.0 mg/kg/injection, schedule: Q04DX003 (ip), vehicle: saline with Tween-80
[6] = endpoint: mean survival time, dose: 400.0 mg/kg/injection, schedule: Q04DX003 (ip), vehicle: saline with Tween-80
[7] = endpoint: mean survival time, dose: 100.0 mg/kg/injection, schedule: Q01DX009 (ip), vehicle: Klucel (hydroxypropylcellulose) (HPC)
[8] = endpoint: mean survival time, dose: 200.0 mg/kg/injection, schedule: Q01DX009 (ip), vehicle: Klucel (hydroxypropylcellulose) (HPC)
[9] = endpoint: mean survival time, dose: 400.0 mg/kg/injection, schedule: Q01DX009 (ip), vehicle: Klucel (hydroxypropylcellulose) (HPC)
[10] = endpoint: mean survival time, dose: 100.0 mg/kg/injection, schedule: Q04DX002 (ip), vehicle: saline with Tween-80
[11] = endpoint: mean survival time, dose: 200.0 mg/kg/injection, schedule: Q04DX002 (ip), vehicle: saline with Tween-80
[12] = endpoint: mean survival time, dose: 100.0 mg/kg/injection, schedule: Q01DX009 (ip), vehicle: saline with Tween-80
[13] = endpoint: mean survival time, dose: 200.0 mg/kg/injection, schedule: Q01DX009 (ip), vehicle: saline with Tween-80
[14] = endpoint: mean survival time, dose: 100.0 mg/kg/injection, schedule: Q04DX003 (ip), vehicle: saline
[15] = endpoint: mean survival time, dose: 200.0 mg/kg/injection, schedule: Q04DX003 (ip), vehicle: saline
[16] = endpoint: mean survival time, dose: 400.0 mg/kg/injection, schedule: Q01DX009 (ip), vehicle: saline with Tween-80

Measured: T/C

O=C(CCCC1CCCCC1)Cc1ccccc1
inactive: endpoint: mean survival time, dose: 100.0 mg/kg/injection, schedule: Q04DX003 (ip), vehicle: acetone 96 % of control | endpoint: mean survival time, dose: 200.0 mg/kg/injection, schedule: Q04DX003 (ip), vehicle: acetone 94 % of control | endpoint: mean survival time, dose: 400.0 mg/kg/injection, schedule: Q04DX003 (ip), vehicle: acetone 102 % of control

CC(=O)CC(OC(=O)c1cc([N+](=O)[O-])cc([N+](=O)[O-])c1)(C(F)(F)F)C(F)(F)F
inactive: endpoint: mean survival time, dose: 100.0 mg/kg/injection, schedule: Q04DX003 (ip), vehicle: Klucel (hydroxypropylcellulose) (HPC) 91 % of control

CCN(CC)CC(C)(C)C(=O)/C=C/c1ccc(/C=C/C(=O)C(C)(C)CN(CC)CC)cc1
inactive: endpoint: median survival time, dose: 3.75 mg/kg/injection, schedule: Q01DX005 (ip), vehicle: saline 98 % of control | endpoint: median survival time, dose: 7.5 mg/kg/injection, schedule: Q01DX005 (ip), vehicle: saline 107 % of control | endpoint: median survival time, dose: 15.0 mg/kg/injection, schedule: Q01DX005 (ip), vehicle: saline 107 % of control | endpoint: median survival time, dose: 30.0 mg/kg/injection, schedule: Q01DX005 (ip), vehicle: saline 116 % of control

CCCCCCCCCCCCCCCCCOc1c(I)cc(I)cc1I
inactive: [1] 86 % of control | [2] 94 % of control | [3] 91 % of control

CC(C)(C)OC(=O)NN=C1CCC(C(C)(C)C)CC1 (stereo not given)
inactive: endpoint: mean survival time, dose: 100.0 mg/kg/injection, schedule: Q01DX009 (ip), vehicle: saline 93 % of control | endpoint: mean survival time, dose: 200.0 mg/kg/injection, schedule: Q01DX009 (ip), vehicle: saline 91 % of control | endpoint: mean survival time, dose: 400.0 mg/kg/injection, schedule: Q01DX009 (ip), vehicle: saline 98 % of control

O=[N+]([O-])c1ccc(N/N=C(\CCl)c2ccccc2)c([N+](=O)[O-])c1
inactive: [1] 92 % of control | [2] 97 % of control | [3] 92 % of control

CC(=O)Nc1cc(C/C(N)=N/O)cc(NC(C)=O)c1
inactive: [4] 100 % of control | [5] 103 % of control | [6] 111 % of control

Cc1cc(NS(=O)(=O)c2ccc(N=Nc3cc(N=Nc4ccc(S(=O)(=O)Nc5cc(C)nc(C)n5)cc4)c4c(NC(=O)C(Cl)Cl)cccc4c3OC(=O)C(Cl)Cl)cc2)nc(C)n1 (tested in a mixture with another compound)
inactive: endpoint: median survival time, dose: 12.5 mg/kg/injection, schedule: Q01DX009 (ip), vehicle: suspension in saline 103 % of control | endpoint: median survival time, dose: 25.0 mg/kg/injection, schedule: Q01DX009 (ip), vehicle: suspension in saline 103 % of control | endpoint: median survival time, dose: 50.0 mg/kg/injection, schedule: Q01DX009 (ip), vehicle: suspension in saline 98 % of control | endpoint: median survival time, dose: 100.0 mg/kg/injection, schedule: Q01DX009 (ip), vehicle: suspension in saline 104 % of control | endpoint: median survival time, dose: 200.0 mg/kg/injection, schedule: Q01DX009 (ip), vehicle: suspension in saline 104 % of control

COc1cc(/C=N/NC(=O)c2ccccc2)ccc1O
inactive: [7] 97 % of control | [8] 97 % of control | [9] 97 % of control

C/C([O-])=N\[N+](C)(C)Cc1ccccc1
inactive: [1] 95 % of control | [2] 98 % of control | [3] 102 % of control

CC/C=N/NC(=O)c1ccc[n+](C)c1
inactive: [10] 100 % of control | [11] 92 % of control | endpoint: mean survival time, dose: 400.0 mg/kg/injection, schedule: Q04DX002 (ip), vehicle: saline with Tween-80 96 % of control

FC(F)(F)c1cccc([PH+](c2cccc(C(F)(F)F)c2)c2cccc(C(F)(F)F)c2)c1.FC(F)(F)c1cccc([PH+](c2cccc(C(F)(F)F)c2)c2cccc(C(F)(F)F)c2)c1.[Cl][Hg][Cl]
inactive: endpoint: mean survival time, dose: 12.5 mg/kg/injection, schedule: Q01DX009 (ip), vehicle: Klucel (hydroxypropylcellulose) (HPC) 101 % of control | endpoint: mean survival time, dose: 25.0 mg/kg/injection, schedule: Q01DX009 (ip), vehicle: Klucel (hydroxypropylcellulose) (HPC) 108 % of control | endpoint: mean survival time, dose: 50.0 mg/kg/injection, schedule: Q01DX009 (ip), vehicle: Klucel (hydroxypropylcellulose) (HPC) 89 % of control

CC(C)COC(=O)c1ccc(NC(=O)Nc2ccccc2Cl)cc1
inactive: [12] 93 % of control | [4] 93 % of control | [13] 89 % of control | [6] 101 % of control

O=C(C[n+]1cc2ccccc2c2ccccc21)c1ccccc1
inactive: [14] 95 % of control | [15] 86 % of control

O=C(Nc1cc(S(=O)(=O)O)ccc1Oc1ccccc1Cl)Nc1cc(S(=O)(=O)O)ccc1Oc1ccccc1Cl
inactive: [7] 101 % of control | [4] 95 % of control | [8] 98 % of control | [5] 95 % of control | [9] 97 % of control | [6] 98 % of control

O=C1c2ccccc2C(=O)N1CNCCCNCN1C(=O)c2ccccc2C1=O
inactive: [12] 98 % of control | [13] 98 % of control | [16] 96 % of control

CCC(=O)n1nc(-c2ccccc2)c2ccccc21
inactive: endpoint: mean survival time, dose: 25.0 mg/kg/injection, schedule: Q04DX002 (ip), vehicle: saline with Tween-80 100 % of control | endpoint: mean survival time, dose: 50.0 mg/kg/injection, schedule: Q04DX002 (ip), vehicle: saline with Tween-80 88 % of control | [10] 96 % of control | [11] 103 % of control

O=[N+]([O-])c1ccc(OCCCBr)cc1
inactive: [4] 91 % of control | [5] 91 % of control | [6] 91 % of control

O=S(=O)(/C=C\c1ccccc1)Oc1ccccc1
inactive: endpoint: mean survival time, dose: 100.0 mg/kg/injection, schedule: Q01DX001 (ip), vehicle: saline 100 % of control | [14] 96 % of control | endpoint: mean survival time, dose: 200.0 mg/kg/injection, schedule: Q01DX001 (ip), vehicle: saline 100 % of control | [15] 95 % of control | endpoint: mean survival time, dose: 400.0 mg/kg/injection, schedule: Q01DX001 (ip), vehicle: saline 93 % of control | endpoint: mean survival time, dose: 400.0 mg/kg/injection, schedule: Q04DX003 (ip), vehicle: saline 90 % of control

COC(=O)N1c2ccccc2C23CCN4CCCC5(CCC12C(C(=O)O)C5)C43 (stereo not given)
inactive: endpoint: mean survival time, dose: 75.0 mg/kg/injection, schedule: Q01DX001 (ip), vehicle: other 93 % of control | endpoint: mean survival time, dose: 150.0 mg/kg/injection, schedule: Q01DX001 (ip), vehicle: other 101 % of control | endpoint: mean survival time, dose: 300.0 mg/kg/injection, schedule: Q01DX001 (ip), vehicle: other 107 % of control

Cc1ccc(N=C(N)NC#N)cc1
inactive: [12] 91 % of control | [13] 93 % of control | [16] 91 % of control

Nc1nc(N)nc(CBr)n1
inactive: endpoint: mean survival time, dose: 3.13 mg/kg/injection, schedule: Q01DX001 (ip), vehicle: Klucel (hydroxypropylcellulose) (HPC) 98 % of control | endpoint: mean survival time, dose: 6.25 mg/kg/injection, schedule: Q01DX001 (ip), vehicle: Klucel (hydroxypropylcellulose) (HPC) 98 % of control | endpoint: mean survival time, dose: 12.5 mg/kg/injection, schedule: Q01DX001 (ip), vehicle: Klucel (hydroxypropylcellulose) (HPC) 88 % of control

CCNCc1ccc2c(c1)OCO2
inactive: endpoint: mean survival time, dose: 75.0 mg/kg/injection, schedule: Q01DX001 (ip), vehicle: saline 101 % of control | endpoint: mean survival time, dose: 150.0 mg/kg/injection, schedule: Q01DX001 (ip), vehicle: saline 101 % of control | endpoint: mean survival time, dose: 300.0 mg/kg/injection, schedule: Q01DX001 (ip), vehicle: saline 103 % of control

O=C1c2ccccc2C(=O)N1CC(O)COc1ccccc1 (stereo not given)
inactive: [4] 94 % of control | [5] 101 % of control | [6] 103 % of control
